Drawing on patent US11649236B2, “Polycyclic carbamoylpyridone derivative” (Shionogi & Co., Ltd., priority 2018, dated 2023), this text covers EC50 for 61 molecules.

Structures are written as SMILES.

The test has as its system HIV. The test can be described thus: Anti-HIV activity (MT-4 cells, MTT). It counts as cell-based. Particulars: Human immunodeficiency virus 1, MT4, 96 h, cultured 4 days. The method, then:
Serial dilutions of a test sample were prepared in a 96-well microplate (50 μL/well). 2.5×10^5 cells/mL of a MT-4 cell suspension was dispensed at 100 μL/well to the plate containing the test sample. Then, an HIV virus solution was dispensed at 50 μL/well. The plate was mixed with a plate mixer and cultured for 4 days in a CO2 incubator. An MTT (3-(4,5-dimethylthiazol-2-yl)-2,5-diphenyltetrazolium bromide) solution was dispensed at 30 μL/well. The plate was reacted for 1 hour in a CO2 incubator. 150 μL of the supernatant was removed from each well so as not to take up the cells. 150 μL of a cell lysis solution was added to each well and well mixed with a plate mixer until the cells were completely lysed. The absorbance of the mixed plate was measured at two wavelengths of 560 nm and 690 nm with a microplate reader.
Take `CCN1C(=O)c2c(O)c(=O)c(C(=O)NCc3ccc(F)cc3F)cn2N2CCOC[C@@H]12` [Compound I-001]: it took 0.52 nM to reach a half-maximal effect (EC50). In other words, the sub-nanomolar range.
On to `CCN1C(=O)c2c(O)c(=O)c(C(=O)NCc3ccc(F)c(Cl)c3F)cn2N2CCCC[C@@H]12` [Compound I-003], for which the EC50 (commonly the concentration giving half of the maximal effect) was found to be 1.4 nM.
The figure for `CCN1C(=O)c2c(O)c(=O)c(C(=O)NCc3ccc(F)c(Cl)c3F)cn2N2CCOC[C@@H]12` [Compound I-004] is 0.56 nM; for `CCN1C(=O)c2c(O)c(=O)c(C(=O)NCc3ccc(F)c(Cl)c3F)cn2N2CCC[C@@H]12` [Compound I-005] it is 1.3 nM.
Turning to `CCN1C(=O)c2c(O)c(=O)c(C(=O)NCc3cc(Cl)c(F)cc3F)cn2N2CCCC[C@@H]12` [Compound I-007], the EC50 came to 4 nM.
With `CCN1C(=O)c2c(O)c(=O)c(C(=O)NCc3ccc(F)cc3F)cn2N2CCC[C@@]12C` [Compound I-008], the EC50 turned out to be 2 nM. Compared with the last molecule, the EC50 is about 2-fold lower.
The same measure for `CCN1C(=O)c2c(O)c(=O)c(C(=O)NCc3ccc(F)cc3F)cn2N2CCN(C(=O)OC(C)(C)C)C[C@@H]12` [Compound I-009]: 1.2 nM; for `CCN1C(=O)c2c(O)c(=O)c(C(=O)NCc3ccc(F)cc3F)cn2N2CCNC[C@@H]12` [Compound I-010]: 1.9 nM.
Molecule `CCN1C(=O)c2c(O)c(=O)c(C(=O)NCc3ccc(F)c(C)c3F)cn2N2CCCC[C@@H]12` [Compound I-012] registered an EC50 of 4 nM.
The same measure for `CCN1C(=O)c2c(O)c(=O)c(C(=O)NCc3ccc(F)cc3F)cn2N2CCN(C)C[C@@H]12` [Compound I-013]: 5.6 nM; for `CCN1C(=O)c2c(O)c(=O)c(C(=O)NCc3ccc(Br)cc3F)cn2N2CCCC[C@@H]12` [Compound I-014]: 10 nM.
The same measure for `COCCN1C(=O)c2c(O)c(=O)c(C(=O)NCc3ccc(F)cc3F)cn2N2CCCC[C@@H]12` [Compound I-016]: 1.4 nM; for `CCN1C(=O)c2c(O)c(=O)c(C(=O)NC3(c4ccc(F)cc4F)CC3)cn2N2CCCC[C@@H]12` [Compound I-017]: 6.1 nM.
The figure for `CCN1C(=O)c2c(O)c(=O)c(C(=O)NCc3ccc(F)cc3F)cn2N2Cc3ccccc3[C@@H]12` [Compound I-018] is 2.1 nM.
`CCN1C(=O)c2c(O)c(=O)c(C(=O)NCc3cccc(Cl)c3F)cn2N2CCCC[C@@H]12` [Compound I-019] had an EC50 of 1.8 nM.
Turning to `CCN1C(=O)c2c(O)c(=O)c(C(=O)NCc3ccc(F)cc3F)cn2N2CCCC(C)(C)[C@@H]12` [Compound I-020], it took 1.3 nM to reach a half-maximal effect (EC50).
For the molecule `CCCN1C(=O)c2c(O)c(=O)c(C(=O)NCc3ccc(F)cc3F)cn2N2CCCC[C@@H]12` [Compound I-021], it took 1.1 nM to reach a half-maximal effect (EC50).
Molecule `O=C(NCc1ccc(F)cc1F)c1cn2c(c(O)c1=O)C(=O)N(C[C@H]1CCCO1)[C@@H]1CCCCN12` [Compound I-022] registered an EC50 of 1.1 nM.
The same measure for `O=C(NCc1ccc(F)cc1F)c1cn2c(c(O)c1=O)C(=O)N(C[C@@H]1CCCO1)[C@@H]1CCCCN12` [Compound I-023]: 0.62 nM; for `COCCCN1C(=O)c2c(O)c(=O)c(C(=O)NCc3ccc(F)cc3F)cn2N2CCCC[C@@H]12` [Compound I-024]: 2.9 nM; for `CCN1C(=O)c2c(O)c(=O)c(C(=O)NCc3ccc(F)c(F)c3F)cn2N2CCCC[C@@H]12` [Compound I-025]: 1.9 nM.
The figure for `O=C(NCc1ccc(F)cc1F)c1cn2c(c(O)c1=O)C(=O)N(C1CCCC1)[C@@H]1CCCCN12` [Compound I-026] is 3.5 nM; for `CCN1C(=O)c2c(O)c(=O)c(C(=O)NCc3ccc(F)cc3F)cn2N2CCc3ccccc3[C@@H]12` [Compound I-027] it is 0.89 nM.
In turn, `O=C(NCc1ccc(F)cc1F)c1cn2c(c(O)c1=O)C(=O)N(CC1CC1)[C@@H]1CCCCN12` [Compound I-028] had an EC50 of 1.9 nM. This EC50 lies about 2.1-fold higher than the previous one.
The same measure for `CCN1C(=O)c2c(O)c(=O)c(C(=O)N[C@H](C)c3ccc(F)cc3F)cn2N2CCCC[C@@H]12` [Compound I-029]: 12 nM; for `CCN1C(=O)c2c(O)c(=O)c(C(=O)N[C@@H](C)c3ccc(F)cc3F)cn2N2CCCC[C@@H]12` [Compound I-030]: 36 nM.
As to `O=C(NCc1ccc(F)cc1F)c1cn2c(c(O)c1=O)C(=O)N(C1CC1)[C@@H]1CCCCN12` [Compound I-031], it took 0.69 nM to reach a half-maximal effect (EC50).
On to `CCN1C(=O)c2c(O)c(=O)c(C(=O)NCc3ccc(F)cc3F)cn2N2CCCCC[C@@H]12` [Compound I-032], for which the EC50 was determined as 1.2 nM.
Molecule `CCN1C(=O)c2c(O)c(=O)c(C(=O)NCc3cccc(Cl)c3Cl)cn2N2CCCC[C@@H]12` [Compound I-033] gave an EC50 of 2.5 nM.
In turn, `CCN1C(=O)c2c(O)c(=O)c(C(=O)NCc3ccc(F)c(Cl)c3)cn2N2CCCC[C@@H]12` [Compound I-034] returned an EC50 of 1.3 nM.
The figure for `CCN1C(=O)c2c(O)c(=O)c(C(=O)NCc3ccc(Cl)cc3F)cn2N2CCCC[C@@H]12` [Compound I-035] is 3.2 nM; for `CCN1C(=O)c2c(O)c(=O)c(C(=O)NCc3cc(F)c(F)cc3F)cn2N2CCCC[C@@H]12` [Compound I-036] it is 1.4 nM.
The same measure for `CCN1C(=O)c2c(O)c(=O)c(C(=O)NCc3cc(F)c(F)c(F)c3)cn2N2CCCC[C@@H]12` [Compound I-037]: 2 nM.
Consider `CCN1C(=O)c2c(O)c(=O)c(C(=O)NCc3ccc(F)cc3Cl)cn2N2CCCC[C@@H]12` [Compound I-038], for which the midpoint of the response, the EC50, lay at 0.72 nM.
For `COC[C@H](C)N1C(=O)c2c(O)c(=O)c(C(=O)NCc3ccc(F)cc3F)cn2N2CCCC[C@@H]12` [Compound I-039], a half-maximal effect (EC50) was put at 4.4 nM.
The figure for `COC[C@@H](C)N1C(=O)c2c(O)c(=O)c(C(=O)NCc3ccc(F)cc3F)cn2N2CCCC[C@@H]12` [Compound I-040] is 0.7 nM; for `C[C@@H](N1C(=O)c2c(O)c(=O)c(C(=O)NCc3ccc(F)cc3F)cn2N2CCCC[C@@H]12)C(F)(F)F` [Compound I-041] it is 0.66 nM; for `CCN1C(=O)c2c(O)c(=O)c(C(=O)NCc3cccc(F)c3F)cn2N2CCCC[C@@H]12` [Compound I-042] it is 0.72 nM.
The figure for `O=C(NCc1ccc(F)cc1F)c1cn2c(c(O)c1=O)C(=O)N(Cc1ccc(F)cc1F)[C@@H]1CCCCN12` [Compound I-043] is 3.5 nM; for `O=C(NCc1ccc(F)cc1F)c1cn2c(c(O)c1=O)C(=O)N([C@@H]1C[C@@H]1F)[C@@H]1CCCCN12` [Compound I-044] it is 1.2 nM.
Consider `O=C(NCc1ccc(F)cc1F)c1cn2c(c(O)c1=O)C(=O)N(CCF)[C@@H]1CCCCN12` [Compound I-045], for which it took 0.73 nM to reach a half-maximal effect (EC50).
The figure for `O=C(NCc1ccc(F)cc1F)c1cn2c(c(O)c1=O)C(=O)N(CC(F)F)[C@@H]1CCCCN12` [Compound I-046] is 0.43 nM.
Turning to `O=C(NCc1ccc(F)cc1F)c1cn2c(c(O)c1=O)C(=O)N(CCCF)[C@@H]1CCCCN12` [Compound I-047], the EC50 was found to be 1.5 nM.
As to `CCN1C(=O)c2c(O)c(=O)c(C(=O)NCc3c(F)ccc(Cl)c3F)cn2N2CCCC[C@@H]12` [Compound I-048], a half-maximal response (EC50) required 1.2 nM. This EC50 and that of the molecule before are within 1.5-fold of each other.
The same measure for `CCN1C(=O)c2c(O)c(=O)c(C(=O)NCc3c(Cl)ccc(Cl)c3F)cn2N2CCCC[C@@H]12` [Compound I-049]: 2.3 nM; for `O=C(NCc1ccc(F)cc1F)c1cn2c(c(O)c1=O)C(=O)N(C1CC(F)(F)C1)[C@@H]1CCCCN12` [Compound I-051]: 0.72 nM.
The same measure for `O=C(NCc1ccc(F)cc1F)c1cn2c(c(O)c1=O)C(=O)N(C1CCC(F)(F)CC1)[C@@H]1CCCCN12` [Compound I-052]: 5.5 nM; for `O=C(NCc1ccc(F)cc1F)c1cn2c(c(O)c1=O)C(=O)N(CC(F)(F)F)[C@@H]1CCCCN12` [Compound I-053]: 0.94 nM.
`CC(C)N1C(=O)c2c(O)c(=O)c(C(=O)NCc3c(F)cc(F)cc3F)cn2N2C[C@@H](C)CC[C@@H]12` [II-001] registered an EC50 of 1 nM.
The same measure for `COC[C@@H](C)N1C(=O)c2c(O)c(=O)c(C(=O)NCc3cccc(Cl)c3F)cn2N2CC[C@H](C)C[C@@H]12` [II-002]: 0.77 nM; for `CCN1C(=O)c2c(O)c(=O)c(C(=O)NC3(c4cccc(Cl)c4F)CC3)cn2N2CCCC[C@@H]12` [II-003]: 6.2 nM; for `COC[C@@H](C)N1C(=O)c2c(O)c(=O)c(C(=O)NCc3cccc(Cl)c3F)cn2N2CCCC[C@@H]12` [II-006]: 0.58 nM.
In turn, `C[C@H]1CC[C@H]2N(C)C(=O)c3c(O)c(=O)c(C(=O)NCc4c(F)cc(F)cc4F)cn3N2C1` [II-007] returned an EC50 of 0.62 nM.
The figure for `CCN1C(=O)c2c(O)c(=O)c(C(=O)NCc3cccc(Cl)c3F)cn2N2[C@H](C)CC[C@@H]12` [II-008] is 1.5 nM; for `COC[C@@H]1CC[C@H]2N(C(C)C)C(=O)c3c(O)c(=O)c(C(=O)NCc4ccc(F)cc4F)cn3N12` [II-010] it is 1 nM.
The figure for `COC[C@@H]1CC[C@H]2N(C(C)C)C(=O)c3c(O)c(=O)c(C(=O)NCc4c(F)cc(F)cc4F)cn3N12` [II-011] is 0.49 nM.
Molecule `CCN1C(=O)c2c(O)c(=O)c(C(=O)N[C@H](C)c3cccc(Cl)c3F)cn2N2CCCC[C@@H]12` [II-012] displayed an EC50 of 3.6 nM. Against the preceding molecule, the EC50 is about 7.3-fold higher.
Molecule `C[C@@H]1CCC[C@H]2N(C)C(=O)c3c(O)c(=O)c(C(=O)NCc4cccc(Cl)c4F)cn3N12` [II-014] came in with an EC50 of 0.55 nM.
The figure for `CCN1C(=O)c2c(O)c(=O)c(C(=O)NCc3c(F)cc(F)cc3F)cn2N2C[C@@H]3CCC[C@@H](C3)[C@@H]12` [II-016] is 0.65 nM; for `CCN1C(=O)c2c(O)c(=O)c(C(=O)NCc3ccc(F)cc3F)cn2N2CCC3(CCC3)C[C@@H]12` [II-017] it is 1.6 nM.
The same measure for `CCN1C(=O)c2c(O)c(=O)c(C(=O)NCc3nccc(Cl)c3F)cn2N2CCCC[C@@H]12` [II-019]: 0.23 nM.
